Results published in article PMC10470313, “Developing a peptide to disrupt cohesin head domain interactions” (iScience, 2023).
Where no end group is shown, it is not given here.

Test system: cohesin (Smc3-V5) on chromatin, yKS-008 strain
Experiment: Chromatin immunoprecipitation (ChIP) of cohesin (Smc3-V5)
Type: cell-based, yeast
Conditions: G2/M arrested; anti-V5 ChIP-qPCR; centromeres of chromosomes 3 and 4, rDNA locus chromosome 12, CARC1 chromosome 3
Experimental: To test the effect of CIP3 on the association of cohesin with chromatin, we performed a chromatin immunoprecipitation (ChIP) assay. yKS-008 strain (Smc3-V5) cells were grown to mid-log phase and arrested in the G1 phase of the cell cycle. Cells were untreated or supplemented with CIP3-TAT and then released into the cell cycle until they were rearrested at the G2/M phase. Cells were processed for ChIP with antibodies against V5 (Figure 4D). Cohesin residency was explored on loci on which cohesin enrichment: the centromeres of chromosome 3 and chromosome 4, the rDNA locus on chromosome 12 and the cohesin-associated region C1 (CARC1) on chromosome 3. […] However, it stabilizes non-cohesive chromosome-bound cohesin. […] Thus, we conclude that CIP3 inhibits ATP hydrolysis rather than blocks ATP binding and cohesin loading.
The cohesion GFP dot assay and ChIP are described in.[46]^,[63]^,[68] In brief, cohesion was studied by visualizing LacO arrays inserted at the LYS locus in a strain expressing LacI-GFP. Cell cultures were grown in a YEPD to OD600=0.5 and synchronized by nocodazole. Cells were fixed by incubating with 100 μl of 4% paraformaldehyde, 15min at room temperature and washed once (5,000rpm, 30sec, room temperature) with 1ml KOP4/sorbitol solution (0.1 M KOP4 pH=7.5 with 1.2 M sorbitol), resuspended in 100 μl of KOP4/sorbitol and stored at 4°C up to one month. […]

KRFKDMEYLSGGEKTGGYGRKKRRQRRR [CIP3-TAT]
cohesin residency on chromatin: cohesin residency increased in cells treated with CIP3-TAT in all tested regions
